The subject of data set [1] is adult dorsal root ganglion (DRG) neurons. In words: Neurite outgrowth assay in primary cultures of axotomized adult DRG neurons. Format: cell-based, C57BL/6 mice. The following applies: 2.5 μM, 17 hours. The procedure: FIG. 1 depicts data showing that M1 increases the length of regenerating axons which is directly proportional to the size of mitochondria in DRG neurons. Wildtype adult DRG neurons were treated with M1 at a concentration of 2.5 μM, and 0.1% DMSO was used as vehicle controls. After 17 hours of incubation, cultures were fixed and immunostained with anti-βIII-tubulin antibodies for neurite outgrowth assay. […] Scale bar: 500 μm. […] More than 80 DRG neurons were quantified from each treatment group. Mean±SEM of triplicates. ***P<0.001; Student's t-test. n.s., not significant. CTL, control.
The current study aimed to investigate the therapeutic potential of mitochondrial fusion promoter M1 for treating patients with nerve injuries. First, we examined if mitochondrial fusion promoter M1 could enhance the intrinsic growth capacity of adult neurons, a critical determinant for successful axon regeneration after nerve injuries. We used primary cultures of axotomized dorsal root ganglion (DRG) neurons as an in vitro model to assess the extent of neurite outgrowth after treating the neurons with mitochondrial fusion promoter M1. Primary cultures of DRG neurons were prepared from adult C57BL/6 mice (8-12 weeks old). The DRG neurons were first dissected out, digested with collagenase/dispase II solution (Roche Diagnostics), trypsinized and dissociated mechanically by three flame-polish Pasteur pipettes with different diameters. […]
For neurite outgrowth assay, 30 non-overlapping images were captured at 10× magnifications using Nikon Ni-E epifluorescence microscope equipped with a motorized stage. Total neurite length of each neuron from each condition were automatically measured using WIS-NeuroMath software (Weizmann Institute of Science). At least 250 neurons were quantified from each condition to obtain the average total neurite length. […]

In data set [2] the test system is sciatic nerve crush injury (peripheral nerve injury model). In words: Sciatic nerve pinch test after sciatic nerve crush injury. The format is in vivo, C57BL/6 mice. The following applies: 3 days after injury. On the procedure:
(§1) FIG. 2 depicts an experimental paradigm for assessing the growth-promoting effects of mitochondrial fusion promoter M1 after peripheral nerve injury. Sciatic nerve crush injury was performed on adult male C57BL/6 mice. Immediately after crush, 20-60 μg of mitochondrial fusion promoter M1 was directly applied on top of the crushed site, followed by a total of 6 administrations (i.e. morning and evening administration with at least 8 hours apart). Sciatic nerve pinch test and axon quantification were performed on day 3 post-injury.
FIG. 3 depicts data showing that mitochondrial fusion promoter M1 accelerates in vivo axonal regrowth after sciatic nerve crush injury in adult mice. […] Sciatic nerve pinch test and axon quantification were performed 3 days after injury. […]
(§2) We first confirmed the growth-promoting effects of mitochondrial fusion promoter M1 using sciatic nerve pinch test. The results from sciatic nerve pinch test were subsequently verified by quantifications of GAP-43-positive regenerating axons 3 days after sciatic nerve crush injury.
Following the completion of dosing paradigm of M1, sciatic nerve pinch test was performed on the ipsilateral nerves 3 days after sciatic nerve crush injury. […] The distance (in mm) was recorded from the crushed site to the most distal point of the nerve where initial withdrawal response was generated after pinching (FIG. 3A).

Data set [3] has the same test system. In words: Quantification of GAP-43-positive regenerating axons after sciatic nerve crush injury. As to conditions: 3 days after injury; 5 mm distal to crushed site. Format: in vivo, C57BL/6 mice. On the procedure: as §1
FIG. 3 depicts data showing that mitochondrial fusion promoter M1 accelerates in vivo axonal regrowth after sciatic nerve crush injury in adult mice. Sciatic nerve crush injury was performed on adult C57BL/6 mice (8-12 weeks old). A total of 6 administrations of mitochondrial fusion promoter M1 was directly applied to the crushed site for 3 consecutive days. Sciatic nerve pinch test and axon quantification were performed 3 days after injury. […]
as §2

Data set [4] relates to optic nerve crush injury (CNS injury model). In words: Axon regeneration (CTB-555-labelled axons) after optic nerve crush injury. The format is in vivo, C57BL/6 mice.
In data set [5] the test system is retinal ganglion cells (RGCs). In words: Retinal ganglion cell (RGC) survival after optic nerve crush injury (RBPMS staining). The format is in vivo, C57BL/6 mice.
Data set [6] relates to optic nerve crush injury (CNS injury model). In words: Optogenetic stimulation of RGCs and local field potential (LFP) recordings in superior colliculus after optic nerve crush. The format is in vivo, mice. The following applies: for eye-evoked RMS LFP amplitude in superior colliculus: six weeks after optic nerve crush. The procedure: Two weeks before LFP recordings, AAV overexpressing a fusion of channelrhodopsin 2 and mCherry was injected into the injured eye of the mice. […] Blue lines indicated optical stimulation in the injured eye. (B) Eye-evoked root-mean-square (RMS) LFP amplitudes were automatically determined using Spike2 software with customized MATLAB program. Administration of M1 markedly elevated the eye-evoked RMS LFP amplitudes compared with vehicle-treated controls. Combination of phosphatase and tensin homolog (Pten) deletion and M1 treatment further increased the RMS LFP amplitudes after optical stimulations of injured RGCs. Mean±SEM (n=4-5 per group). *P<0.05, one-way ANOVA with Bonferroni post-hoc test.
To record evoked LFP in SC, mice received intravitreal injection of AAV-ChR2-mCherry […]. Six weeks after optic nerve crush injury, we stimulated the injured RGCs by placing an optical fiber with blue laser at 473 nm illuminated at the periphery of the left eye (injured). Evoked LFPs in response to the optical stimuli from ChR2-overexpressing RGCs were recorded in the SC. There were virtually no LFP amplitudes that could be detected from the vehicle-treated mice (FIG. 7A), which was consistent with the histology results. […] Treating the mice with M1 and Pten deletion restored almost 25% of the maximal LFP amplitude compared with uninjured mice.
To optically stimulate the RGCs in vivo, AAV expressing a fusion of channelrhodopsin-2 and mCherry (AAV-ChR2-mCherry) at viral titre of 1×10^13 vg/ml was injected intravitreally into both eyes two weeks before optogenetics experiments. For intravitreal injection, a micropipette was gently inserted into the peripheral retina of the eye, just behind the ora serrata, placed with an angle to avoid damages to the lens. […]
The data recorded from the system was used as digital input signals for synchronization of the optogenetics setup. Data were analyzed offline using spike2 software (Version 8) and customized MATLAB program. Root-mean-square (RMS) amplitudes after optical stimulation was calculated (FIG. 7).

The subject of data set [7] is MEF Mfn1−/− or Mfn2−/− cultures. The following applies: Mfn1 or Mfn2 knockout; cited from earlier work.
Data set [8] relates to dopaminergic neuron-like SH-SY5Y cells. The following applies: 1-methyl-4-phenyl-pyridinium (MPP+); cited from earlier work.

The values below come from US11992469B2, “Targeting mitochondrial dynamics by mitochondrial fusion promoter M1 as a treatment strategy for nervous system injury” (City University of Hong Kong, priority 2020, dated 2024).

As to `CC(=NNc1c(Cl)cc(Cl)cc1Cl)c1cc(Cl)ccc1O` [M1], the “cell survival of DRG neurons” value in data set [1] is reported as “no cell survival effect”. For the same molecule, the “mitochondrial size in DRG neurons (distal axons)” value in data set [1] is “increase in mitochondrial size”. Also, in data set [1] (vs 0.1% DMSO vehicle), the “increase in neurite outgrowth from adult DRG neurons” value worked out at 49%. Further, the “dose of maximal effect on distal extent of axonal regrowth (pinch test)” value in data set [2] is 20 µg/day. Further, in data set [2] (20-60 μg applied to crushed site, 6 administrations), the “increase in most distal axonal regrowth (sciatic nerve pinch test)” value amounted to 55%. The “increase in number of GAP-43-positive regenerating axons vs vehicle controls” value in data set [3] is given as 2 fold. Further, the “axon regeneration after optic nerve crush” value in data set [4] (day 14 post-injury, 1 μg intravitreal at days 0 and 7) is given as “robust axon regeneration”; in data set [4] (day 28 post-injury, 1 μg intravitreal at days 0, 7, 14 and 21) it was “robust axon regeneration”. The “distance reached by regenerating axons” value in data set [4] (day 28 post-injury) was “reach the optic chiasm”; in data set [4] (six weeks after optic nerve crush injury, intravitreal injection), “reaching superior colliculus”. In addition, the “RGC survival vs vehicle-treated controls” value in data set [5] (14 days after optic nerve crush injury) and in data set [5] (28 days after optic nerve crush injury) was “more retinal ganglion cells (RGCs) were survived” each time. Moreover, the “restored share of maximal LFP amplitude compared with uninjured mice” value in data set [6] (M1 and Pten deletion) was about 25%. Further, the “eye-evoked RMS LFP amplitude in superior colliculus” value worked out at 59.82±3.6 μV in data set [6] (M1-treated mice); 88.36±3.13 μV in data set [6] (Pten-knockout (Pten-KO) and M1-treated mice). Besides, the “restoration of mitochondrial fragmentation” value in data set [7] is reported as “completely restored”. Further, in data set [8], the “protection from MPP+-induced neurotoxicity” value is listed as “protected”.
